Values quoted from earlier work as cited in patent US20240024227A1, “CANNABIS PLANT DERIVED EXTRACELLULAR VESICLES AND THERAPEUTIC METHODS USING THE SAME” (UNIVERSITY OF FLORIDA RESEARCH FOUNDATION, INCORPORATED, priority 2020, published 2024).
Like-named read-outs stand apart in the source and are kept apart here.

Details: IP approximately 300 μg

SMILES	THCa levels in the brain	CBDa brain Cmax (ethanol Tween-80 solution) [ng/mg]	CBDa brain Cmax (vegetable oil) [ng/mg]	time of CBDa brain Cmax (vegetable oil or Tween-80) [min]
CCCCCc1cc2c(c(O)c1C(=O)O)[C@@H]1C=C(C)CC[C@H]1C(C)(C)O2 [THCa, tetrahydrocannabinolic acid]	below detection			
C=C(C)[C@@H]1CCC(C)=C[C@H]1c1c(O)cc(CCCCC)c(C(=O)O)c1O [CBDa, Cannabidiolic acid]		13.2	2.0	30
